Consider 13 compounds from patent US20260022142A1, “MACROCYCLIC IMMUNOMODULATORS” (Bristol-Myers Squibb Company, priority 2022, published 2026).

Bridge positions count the residues as written; N and C are the ends. Square brackets hold non-standard residues; d marks the D form. Peptide text beside a SMILES is read from it. * marks the point of attachment. ξ: configuration not given here. Bip = N[C@@H](Cc1ccc(-c2ccccc2)cc1)C(=O)O; Phe(3-Me) = Cc1cccc(C[C@H](N)C(=O)O)c1; Cha = N[C@@H](CC1CCCCC1)C(=O)O; Cit = NC(=O)NCCC[C@H](N)C(=O)O; Thr(3ξ) = CC(O)[C@H](N)C(=O)O; Carboxymethyl = O=C(O)C*; Orn = NCCC[C@H](N)C(=O)O; Aun = NCCCCCCCCCCC(=O)O; Dab = NCC[C@H](N)C(=O)O; Dap = NC[C@H](N)C(=O)O; AEEA = NCCOCCOCC(=O)O

This assay deals with T1, PD-1/PD-L1 interaction (PE-labeled human PD-L1-Ig binding to Jurkat cell line over-expressing human PD-1) (Homo sapiens, UniProt Q15116).
T1 construct: expressed in transfected cells; host or cells: Jurkat
T1 sequence (Q15116 25-288): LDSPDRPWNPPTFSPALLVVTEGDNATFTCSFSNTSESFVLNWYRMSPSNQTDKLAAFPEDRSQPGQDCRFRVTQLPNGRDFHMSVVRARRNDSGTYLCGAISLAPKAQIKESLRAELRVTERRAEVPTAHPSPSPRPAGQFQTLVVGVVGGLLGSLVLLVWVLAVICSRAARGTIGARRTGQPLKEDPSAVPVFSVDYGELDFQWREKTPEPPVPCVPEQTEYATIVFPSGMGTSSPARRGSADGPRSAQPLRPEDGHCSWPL
Nature of the assay: Jurkat-PD-1 Cell Binding High-Content Screening Assay (CBA). In kind it is cell-based. As to conditions: Jurkat cell line over-expressing human PD-1; PE-labeled PD-L1-Ig 20 nM final; read-out: Jurkat hPD1-PDL1 IC50. In a few lines:
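Jurkat-hPD-1 cells, DMEM/10% FCS; cpd 2 h 37° C; PE-PD-L1-Ig 20 nM final, 1 h; 4% PFA fix + Hoechst 33342, 3× dPBS wash; high-content imaging read-out.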
One may read the IC50 as the point on the concentration scale where inhibition reaches its midpoint. As for `Cc1cccc(C[C@@H]2NC(=O)[C@H](CC(=O)O)NC(=O)[C@H](Cc3ccc(OCC(=O)O)cc3)NC(=O)[C@H](CN)NC(=O)CSC[C@@H](C(=O)N[C@@H](CCN)C(=O)NCCOCCOCC(=O)NCCCCCCCCCCC(=O)O)NC(=O)[C@H](CCCN)NC(=O)[C@H](Cc3ccc(O)cc3)NC(=O)[C@H](CC3CCCCC3)NC(=O)[C@H](CCN)NC(=O)[C@@H](CC(C)C)NC(=O)[C@H](CCCN)NC(=O)[C@H](C(C)C)NC(=O)[C@H](Cc3ccc(-c4ccccc4)cc3)NC(=O)[C@H](Cc3ccc(O)cc3)NC2=O)c1` [Compound 2574] ({CH2CO}-[Dap]Y(Carboxymethyl)D[Phe(3-Me)]Y[Bip]V[Orn][dL][Dab][Cha]Y[Orn]C[Dab][AEEA][Aun]-OH; thioether N-14), the concentration for half-maximal inhibition (IC50) is 28.3 nM.
Under `Cc1cccc(C[C@@H]2NC(=O)[C@H](CC(=O)O)NC(=O)[C@H](Cc3ccc(OCC(=O)O)cc3)NC(=O)[C@H](CN)NC(=O)CSC[C@@H](C(=O)N[C@@H](CCN)C(=O)NCCOCCOCC(=O)NCCCCCCCCCCC(=O)O)NC(=O)[C@H](C(C)O)NC(=O)[C@H](C(C)C)NC(=O)[C@H](CC3CCCCC3)NC(=O)[C@H](CCN)NC(=O)[C@@H](CC(C)C)NC(=O)[C@H](CCCN)NC(=O)[C@H](Cc3ccc(O)cc3)NC(=O)[C@H](Cc3ccc(-c4ccccc4)cc3)NC(=O)[C@H](Cc3ccc(O)cc3)NC2=O)c1` (stereo partly drawn) [Compound 2575] ({CH2CO}-[Dap]Y(Carboxymethyl)D[Phe(3-Me)]Y[Bip]Y[Orn][dL][Dab][Cha]V[Thr(3ξ)]C[Dab][AEEA][Aun]-OH; thioether N-14) stands 10.2 nM; under `Cc1cccc(C[C@@H]2NC(=O)[C@H](CC(=O)O)NC(=O)[C@H](Cc3ccc(OCC(=O)O)cc3)NC(=O)[C@H](CN)NC(=O)CSC[C@@H](C(=O)N[C@@H](CCN)C(=O)NCCOCCOCC(=O)NCCCCCCCCCCC(=O)O)NC(=O)[C@H](CCCN)NC(=O)[C@H](C(C)C)NC(=O)[C@H](CC3CCCCC3)NC(=O)[C@H](CCN)NC(=O)[C@@H](CC(C)C)NC(=O)[C@H](CCCN)NC(=O)[C@H](Cc3ccc(O)cc3)NC(=O)[C@H](Cc3ccc(-c4ccccc4)cc3)NC(=O)[C@H](Cc3ccc(O)cc3)NC2=O)c1` [Compound 2576] ({CH2CO}-[Dap]Y(Carboxymethyl)D[Phe(3-Me)]Y[Bip]Y[Orn][dL][Dab][Cha]V[Orn]C[Dab][AEEA][Aun]-OH; thioether N-14), 10.4 nM.
With `Cc1cccc(C[C@@H]2NC(=O)[C@H](CC(=O)O)NC(=O)[C@H](Cc3ccc(OCC(=O)O)cc3)NC(=O)[C@H](CN)NC(=O)CSC[C@@H](C(=O)N[C@@H](CCN)C(=O)NCCOCCOCC(=O)NCCCCCCCCCCC(=O)O)NC(=O)[C@H](C(C)O)NC(=O)[C@H](Cc3ccc(O)cc3)NC(=O)[C@H](CC3CCCCC3)NC(=O)[C@H](CCN)NC(=O)[C@@H](CC(C)C)NC(=O)[C@H](CCCN)NC(=O)[C@H](Cc3ccc(O)cc3)NC(=O)[C@H](Cc3ccc(-c4ccccc4)cc3)NC(=O)[C@H](C(C)C)NC2=O)c1` (stereo partly drawn) [Compound 2577] ({CH2CO}-[Dap]Y(Carboxymethyl)D[Phe(3-Me)]V[Bip]Y[Orn][dL][Dab][Cha]Y[Thr(3ξ)]C[Dab][AEEA][Aun]-OH; thioether N-14), the 50% inhibitory concentration (IC50) amounted to 34 nM.
`Cc1cccc(C[C@@H]2NC(=O)[C@H](CC(=O)O)NC(=O)[C@H](Cc3ccc(OCC(=O)O)cc3)NC(=O)[C@H](CN)NC(=O)CSC[C@@H](C(=O)N[C@@H](CCN)C(=O)NCCOCCOCC(=O)NCCCCCCCCCCC(=O)O)NC(=O)[C@H](CCCN)NC(=O)[C@H](Cc3ccc(O)cc3)NC(=O)[C@H](CC3CCCCC3)NC(=O)[C@H](CCN)NC(=O)[C@@H](CC(C)C)NC(=O)[C@H](CCCN)NC(=O)[C@H](Cc3ccc(O)cc3)NC(=O)[C@H](Cc3ccc(-c4ccccc4)cc3)NC(=O)[C@H](C(C)C)NC2=O)c1` [Compound 2578] ({CH2CO}-[Dap]Y(Carboxymethyl)D[Phe(3-Me)]V[Bip]Y[Orn][dL][Dab][Cha]Y[Orn]C[Dab][AEEA][Aun]-OH; thioether N-14): the 50% inhibitory concentration (IC50) came out at 10.7 nM.
`Cc1cccc(C[C@@H]2NC(=O)[C@H](CC(=O)O)NC(=O)[C@H](Cc3ccc(OCC(=O)O)cc3)NC(=O)[C@H](CN)NC(=O)CSC[C@@H](C(=O)N[C@@H](CCN)C(=O)NCCOCCOCC(=O)NCCCCCCCCCCC(=O)O)NC(=O)[C@H](C(C)O)NC(=O)[C@H](C(C)C)NC(=O)[C@H](CC3CCCCC3)NC(=O)[C@H](CCN)NC(=O)[C@@H](CC(C)C)NC(=O)[C@H](CCCN)NC(=O)[C@H](CCCNC(N)=O)NC(=O)[C@H](Cc3ccc(-c4ccccc4)cc3)NC(=O)[C@H](Cc3ccc(O)cc3)NC2=O)c1` (stereo partly drawn) [Compound 2579] ({CH2CO}-[Dap]Y(Carboxymethyl)D[Phe(3-Me)]Y[Bip][Cit][Orn][dL][Dab][Cha]V[Thr(3ξ)]C[Dab][AEEA][Aun]-OH; thioether N-14): the half-inhibitory concentration (IC50) turned out to be 11.8 nM.
Consider `Cc1cccc(C[C@@H]2NC(=O)[C@H](CC(=O)O)NC(=O)[C@H](Cc3ccc(OCC(=O)O)cc3)NC(=O)[C@H](CN)NC(=O)CSC[C@@H](C(=O)N[C@@H](CCN)C(=O)NCCOCCOCC(=O)NCCCCCCCCCCC(=O)O)NC(=O)[C@H](CCCN)NC(=O)[C@H](C(C)C)NC(=O)[C@H](CC3CCCCC3)NC(=O)[C@H](CCN)NC(=O)[C@@H](CC(C)C)NC(=O)[C@H](CCCN)NC(=O)[C@H](CCCNC(N)=O)NC(=O)[C@H](Cc3ccc(-c4ccccc4)cc3)NC(=O)[C@H](Cc3ccc(O)cc3)NC2=O)c1` [Compound 2580] ({CH2CO}-[Dap]Y(Carboxymethyl)D[Phe(3-Me)]Y[Bip][Cit][Orn][dL][Dab][Cha]V[Orn]C[Dab][AEEA][Aun]-OH; thioether N-14), for which the IC50 was determined as 7.7 nM.
Consider `Cc1cccc(C[C@@H]2NC(=O)[C@H](CC(=O)O)NC(=O)[C@H](Cc3ccc(OCC(=O)O)cc3)NC(=O)[C@H](CN)NC(=O)CSC[C@@H](C(=O)N[C@@H](CCN)C(=O)NCCOCCOCC(=O)NCCCCCCCCCCC(=O)O)NC(=O)[C@H](C(C)O)NC(=O)[C@H](C(C)C)NC(=O)[C@H](CC3CCCCC3)NC(=O)[C@H](CCN)NC(=O)[C@@H](CC(C)C)NC(=O)[C@H](CCCN)NC(=O)[C@H](C(C)C)NC(=O)[C@H](Cc3ccc(-c4ccccc4)cc3)NC(=O)[C@H](Cc3ccc(O)cc3)NC2=O)c1` (stereo partly drawn) [Compound 2581] ({CH2CO}-[Dap]Y(Carboxymethyl)D[Phe(3-Me)]Y[Bip]V[Orn][dL][Dab][Cha]V[Thr(3ξ)]C[Dab][AEEA][Aun]-OH; thioether N-14), for which the IC50 was found to be 21.4 nM.
Take `Cc1cccc(C[C@@H]2NC(=O)[C@H](CC(=O)O)NC(=O)[C@H](Cc3ccc(OCC(=O)O)cc3)NC(=O)[C@H](CN)NC(=O)CSC[C@@H](C(=O)N[C@@H](CCN)C(=O)NCCOCCOCC(=O)NCCCCCCCCCCC(=O)O)NC(=O)[C@H](CCCN)NC(=O)[C@H](C(C)C)NC(=O)[C@H](CC3CCCCC3)NC(=O)[C@H](CCN)NC(=O)[C@@H](CC(C)C)NC(=O)[C@H](CCCN)NC(=O)[C@H](C(C)C)NC(=O)[C@H](Cc3ccc(-c4ccccc4)cc3)NC(=O)[C@H](Cc3ccc(O)cc3)NC2=O)c1` [Compound 2582] ({CH2CO}-[Dap]Y(Carboxymethyl)D[Phe(3-Me)]Y[Bip]V[Orn][dL][Dab][Cha]V[Orn]C[Dab][AEEA][Aun]-OH; thioether N-14): the 50% inhibitory concentration (IC50) came out at 9.5 nM.
Next, `Cc1cccc(C[C@@H]2NC(=O)[C@H](CC(=O)O)NC(=O)[C@H](Cc3ccc(OCC(=O)O)cc3)NC(=O)[C@H](CN)NC(=O)CSC[C@@H](C(=O)N[C@@H](CCN)C(=O)NCCOCCOCC(=O)NCCCCCCCCCCC(=O)O)NC(=O)[C@H](C(C)O)NC(=O)[C@H](Cc3ccc(O)cc3)NC(=O)[C@H](CC3CCCCC3)NC(=O)[C@H](CCN)NC(=O)[C@@H](CC(C)C)NC(=O)[C@H](CCCN)NC(=O)[C@H](CCCNC(N)=O)NC(=O)[C@H](Cc3ccc(-c4ccccc4)cc3)NC(=O)[C@H](C(C)C)NC2=O)c1` (stereo partly drawn) [Compound 2583] ({CH2CO}-[Dap]Y(Carboxymethyl)D[Phe(3-Me)]V[Bip][Cit][Orn][dL][Dab][Cha]Y[Thr(3ξ)]C[Dab][AEEA][Aun]-OH; thioether N-14): 32.3 nM.
Take `Cc1cccc(C[C@@H]2NC(=O)[C@H](CC(=O)O)NC(=O)[C@H](Cc3ccc(OCC(=O)O)cc3)NC(=O)[C@H](CN)NC(=O)CSC[C@@H](C(=O)N[C@@H](CCN)C(=O)NCCOCCOCC(=O)NCCCCCCCCCCC(=O)O)NC(=O)[C@H](CCCN)NC(=O)[C@H](Cc3ccc(O)cc3)NC(=O)[C@H](CC3CCCCC3)NC(=O)[C@H](CCN)NC(=O)[C@@H](CC(C)C)NC(=O)[C@H](CCCN)NC(=O)[C@H](CCCNC(N)=O)NC(=O)[C@H](Cc3ccc(-c4ccccc4)cc3)NC(=O)[C@H](C(C)C)NC2=O)c1` [Compound 2584] ({CH2CO}-[Dap]Y(Carboxymethyl)D[Phe(3-Me)]V[Bip][Cit][Orn][dL][Dab][Cha]Y[Orn]C[Dab][AEEA][Aun]-OH; thioether N-14): the IC50 is 17.9 nM.
As for `Cc1cccc(C[C@@H]2NC(=O)[C@H](CC(=O)O)NC(=O)[C@H](Cc3ccc(OCC(=O)O)cc3)NC(=O)[C@H](CN)NC(=O)CSC[C@@H](C(=O)N[C@@H](CCN)C(=O)NCCOCCOCC(=O)NCCCCCCCCCCC(=O)O)NC(=O)[C@H](C(C)O)NC(=O)[C@H](Cc3ccc(O)cc3)NC(=O)[C@H](CC3CCCCC3)NC(=O)[C@H](CCN)NC(=O)[C@@H](CC(C)C)NC(=O)[C@H](CCCN)NC(=O)[C@H](C(C)C)NC(=O)[C@H](Cc3ccc(-c4ccccc4)cc3)NC(=O)[C@H](C(C)C)NC2=O)c1` (stereo partly drawn) [Compound 2585] ({CH2CO}-[Dap]Y(Carboxymethyl)D[Phe(3-Me)]V[Bip]V[Orn][dL][Dab][Cha]Y[Thr(3ξ)]C[Dab][AEEA][Aun]-OH; thioether N-14), the IC50 was determined as 27 nM.
Consider `Cc1cccc(C[C@@H]2NC(=O)[C@H](CC(=O)O)NC(=O)[C@H](Cc3ccc(OCC(=O)O)cc3)NC(=O)[C@H](CN)NC(=O)CSC[C@@H](C(=O)N[C@@H](CCN)C(=O)NCCOCCOCC(=O)NCCCCCCCCCCC(=O)O)NC(=O)[C@H](CCCN)NC(=O)[C@H](Cc3ccc(O)cc3)NC(=O)[C@H](CC3CCCCC3)NC(=O)[C@H](CCN)NC(=O)[C@@H](CC(C)C)NC(=O)[C@H](CCCN)NC(=O)[C@H](C(C)C)NC(=O)[C@H](Cc3ccc(-c4ccccc4)cc3)NC(=O)[C@H](C(C)C)NC2=O)c1` [Compound 2586] ({CH2CO}-[Dap]Y(Carboxymethyl)D[Phe(3-Me)]V[Bip]V[Orn][dL][Dab][Cha]Y[Orn]C[Dab][AEEA][Aun]-OH; thioether N-14), for which the half-inhibitory concentration (IC50) was 22.2 nM.
